Test results published in US11576987B2, “Compositions and methods of treating melanoma” (UNIVERSITY OF IOWA RESEARCH FOUNDATION, priority 2016, dated 2023).
Where a name gives a salt, the structure may show the parent alone.

Columns and labels:
[1] = biological target: T1, MCR1 (Homo sapiens, UniProt Q01726); assay: Radiobinding assay with [125I]-NDP-a-MSH after drug incubation; type: cell-based; details: SK-MEL3 and A2058 BRAF^V600E, 4 hours incubation, relative to untreated controls
T1 construct: endogenous in cells; host or cells: SK-MEL3 BRAF V600E and A2058 BRAF V600E human melanoma cells
Protocol: FIGS. 11A-11D. MCR1 expression can be enhanced in human melanoma cells by incubation with PBA and FDA approved melanoma drugs. (A-B) Flow cytometry analysis of MC1R expression in human melanoma cells: (A) SK-MEL3 BRAF^V600E; (B) A2058 BRAF^V600E; incubated for 4 hours with clinically-relevant concentrations of BRAFi: PLX4032 (10 μM), GSK2118436 (2 μM); MEKi: GDC0973 (2 μM), GSK1120212 (2 μM); 4-PBA (4 mM). Cells were stained with anti-MC1R-phycoerythrin (PE) monoclonal antibody conjugate. Fluorescence intensity was corrected by PE-conjugated isotype. Data were expressed as normalized mean fluorescence intensity (NMFI; n=4±SD; *p<0.05). […] (C) SK-MEL3 BRAF^V600E; and (D) A2058 BRAF^V600E was confirmed by radiobinding assay using MCR1-specific peptide [^125I]-NDP-a-MSH following incubation for 4 hours with PBA and FDA approved drugs (as in FIG. 10). […] Binding expressed as radioactivity bound relative to untreated controls (same cells) (n=4±SD; *p<0.05).
PCR measurements give information on the cellular response to drug treatments, but competitive binding assays convey a specific measure of changes in receptor expression (protein level) and changes in ligand-binding interactions as a result of drug treatments (FIGS. 11A-11B). After drug treatments, receptor expression is determined using synthetic α-MSH analog [^125I]-Nle^4-D-Phe^7-alpha-MSH ([^125I]-NDP-MSH) routinely as in FIG. 16D. […]

[2] = cited from earlier work
[3] = test system: MCR1 expression; assay: Pharmacological enhancement of MCR1 expression in human melanoma cells by drug incubation; type: cell-based; details: human melanoma cells, incubation with drug
Source text: Melanoma if detected early can be cured by surgery, but metastatic melanoma is lethal. New therapies (e.g., immunotherapy; BRAF inhibition, BRAFi) and combinations extend life, but low response rates, acquired drug resistance, and serious side effects are major challenges to improving outcomes for disseminated disease (5 y survival 17%). Peptide-based radionuclide therapy targeted to the melanocortin-receptor type 1 (MCR1-RT) has long been considered a promising alternative; and MCR1-RT has achieved complete responses in mouse models (B16). However, MCR1 expression is heterogeneous/low in human melanoma, and as a result, no previous MCR1-RT study has employed successfully human melanoma cell xenografts. […] This introduces innovative Pb-specific chelator combined with a “click-cyclized” peptide (PSC-C-MCR1) to improve tumor:kidney ratio of radionuclide uptake 7-fold. An effective therapy for metastatic melanoma is developed that combines MCR1-RT with pharmacological agents (PBA; BRAFi/MEKi; HDACi) that enhance MCR1 expression.
Melanoma is the fastest growing cancer incidence in the United States. Surgery combined with radiation can be curative at early stages. However, metastatic melanoma is almost uniformly fatal (5-yr survival 17%). Recent breakthrough targeted MAPKi therapies (e.g., BRAFi) and immunotherapies (e.g., PD-1 inhibitors) have improved outcomes, but low response rates, acquired drug resistance, and adverse side effects limit quality of life for metastatic melanoma patients. For example, approval of immune-checkpoint inhibitor ipilimumab was based on an improvement in overall survival of only 3.7 months (overall response <15%). Combination immunotherapies have improved response (up to 61%), but grade 3/4 adverse events (up to 55%) often lead to therapy discontinuation (up to 36%). For targeted therapies, BRAF inhibitor vemurafenib was approved based on overall survival at 6 months of 84% vs 64% in the control arm (dacarbazine). Combining BRAFi with MEK inhibitors (MEKi) has led to modest improvements, yet recurrence is virtually inevitable. The mechanisms of acquired drug resistance are complex, and include altered/alternative oncogenic pathways; tumor heterogeneity; and enhanced DNA repair. Melanocortin-receptor type 1 targeted radionuclide therapy (MCR1-RT) has long been considered a promising alternative treatment for melanoma; and MCR1-targeted α-particle therapy (^212Pb) has achieved complete responses in mice bearing mouse (B16) tumors that highly express MCR1. However, these studies have been confined primarily to mouse melanoma (B16) cells because MCR1 expression is heterogeneous/low in human melanoma.
Combination therapies for metastatic melanoma are emerging as common practice (e.g., BRAFi plus MEK; and combination immunotherapies), but melanoma almost invariably develops resistance. MCR1-RT has long been considered a promising alternative, but previous therapy studies have been limited to the use of B16 mouse melanoma cells that highly express the MCR1 protein, because native MCR1 expression in human melanoma is heterogeneous/low.

O=C(O)CCCc1ccccc1 [PBA, 4-phenylbutyric acid, sodium salt]
binding of MCR1-specific peptide [125I]-NDP-a-MSH [1]: increases binding of MCR1-specific peptides
solubility in acetone and diethyl ether [2]: practically insoluble
solubility in methanol [2]: freely soluble
solubility in water [2]: soluble in water
enhancement of MCR1 expression [3]: up to 8 fold
